In patent publication US8076116B2, “Nucleic acids encoding class II human histone deacetylases, and uses related thereto” (priority 2000, dated 2011):

Tests used:
HDAC5 [1] = type: cell-based, human; conditions: TAg Jurkat cells treated 1.5 hours; for HDAC5 association with HDAC3 / binding of HDAC5 to either 14-3-3 isoform: Western blot; for HDAC activity of the purified HDAC5 complex: immunoprecipitate
Description: (§1) In addition, an increase in the overall HDAC activity of the purified complex was observed (FIG. 9A).
(§2) Cells were harvested 48 hours post-transfection. When required, cells were treated with 200 µM staurosporin (Calbiochem) or 20 nM calyculin A (Calbiochem) for 1.5 hours prior to harvesting.

HDAC4 [2] = type: cell-based, human; conditions: TAg Jurkat cells treated 1.5 hours; for HDAC activity of the purified HDAC4 complex: immunoprecipitate
Description: as §1
HDAC4 (SEQ ID NO:2) also contains a nuclear localization sequence (Hicks and Raikhel, 1995). In order to determine if the interaction with 14-3-3 blocks binding of the importin heterodimer, recombinant FLAG-tagged HDAC4 (SEQ ID NO:2) was immunoprecipitated from untreated, staurosporine-, and calyculin A-treated TAg-Jurkat cells and analyzed for binding to importin □ by Western blotting.
as §2

HDAC6 = molecular target: T1, HDAC6 (Homo sapiens, UniProt Q9UBN7); test: in vitro HDAC assay, release of 3H-acetate from labeled histones by immunoprecipitated FLAG-tagged HDAC6; type: biochemical; conditions: 300 nM TSA, 10 minutes prior to addition of labeled histones
T1 construct: made in house; host or cells: Sf9 insect cells (baculovirus, pVL1392, Baculogold)
T1 sequence (Q9UBN7 1-1215 T994I): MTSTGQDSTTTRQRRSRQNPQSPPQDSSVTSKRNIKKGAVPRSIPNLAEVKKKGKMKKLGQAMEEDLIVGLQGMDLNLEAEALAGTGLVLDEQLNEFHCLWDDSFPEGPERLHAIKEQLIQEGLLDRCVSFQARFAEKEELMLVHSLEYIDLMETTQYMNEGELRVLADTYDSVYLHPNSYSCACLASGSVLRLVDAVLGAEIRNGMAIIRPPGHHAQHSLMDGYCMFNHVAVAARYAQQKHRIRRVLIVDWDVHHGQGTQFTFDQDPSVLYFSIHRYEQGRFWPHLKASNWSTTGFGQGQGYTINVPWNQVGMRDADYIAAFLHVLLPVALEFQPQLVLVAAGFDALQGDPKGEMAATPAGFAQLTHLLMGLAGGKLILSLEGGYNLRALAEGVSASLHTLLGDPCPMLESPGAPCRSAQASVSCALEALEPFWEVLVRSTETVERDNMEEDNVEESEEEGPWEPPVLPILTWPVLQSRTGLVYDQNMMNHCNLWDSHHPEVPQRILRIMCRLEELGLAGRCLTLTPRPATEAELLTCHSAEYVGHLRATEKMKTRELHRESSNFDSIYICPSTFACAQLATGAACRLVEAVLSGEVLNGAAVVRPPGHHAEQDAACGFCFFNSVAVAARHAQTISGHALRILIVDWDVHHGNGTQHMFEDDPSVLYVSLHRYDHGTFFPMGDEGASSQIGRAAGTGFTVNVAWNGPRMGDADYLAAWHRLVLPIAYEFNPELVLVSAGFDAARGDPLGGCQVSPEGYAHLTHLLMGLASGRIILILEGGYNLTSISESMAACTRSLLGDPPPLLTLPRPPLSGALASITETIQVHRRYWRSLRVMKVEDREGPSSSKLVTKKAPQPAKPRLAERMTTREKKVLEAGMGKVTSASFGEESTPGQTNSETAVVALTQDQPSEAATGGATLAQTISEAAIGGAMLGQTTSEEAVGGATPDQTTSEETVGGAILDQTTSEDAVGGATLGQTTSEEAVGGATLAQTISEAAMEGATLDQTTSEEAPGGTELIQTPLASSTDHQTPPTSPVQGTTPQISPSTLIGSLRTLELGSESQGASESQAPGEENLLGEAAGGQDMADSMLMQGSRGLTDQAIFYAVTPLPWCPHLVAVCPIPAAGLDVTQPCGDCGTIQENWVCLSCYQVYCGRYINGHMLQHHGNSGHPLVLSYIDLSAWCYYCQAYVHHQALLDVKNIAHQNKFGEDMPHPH
Description: (§3) C. In Vitro Histone Deacetylase Activity of Class II HDACs.
(§4) FLAG-tagged HDAC1 and HDAC6 were expressed in TAg Jurkat cells and purified by immunoprecipitation using the anti-FLAG antibody. […] The proteins were used in in vitro HDAC assays with the compounds identified in the screen, using concentration of approximately 50 μM.
(§5) E. Histone isolation and substrate specificity determination. […] F. HDAC6 Mutagenesis. […] G. Cell culture and transfections. […] Cells were harvested 48 hours post-transfection. H. DNA Constructs

HDAC4 [3] = molecular target: HDAC4 (Homo sapiens, UniProt P56524); conditions: 300 nM TSA, 10 minutes prior to addition of labeled histones
Sequence of HDAC4 (Homo sapiens, UniProt P56524) (P56524 whole entry A373T): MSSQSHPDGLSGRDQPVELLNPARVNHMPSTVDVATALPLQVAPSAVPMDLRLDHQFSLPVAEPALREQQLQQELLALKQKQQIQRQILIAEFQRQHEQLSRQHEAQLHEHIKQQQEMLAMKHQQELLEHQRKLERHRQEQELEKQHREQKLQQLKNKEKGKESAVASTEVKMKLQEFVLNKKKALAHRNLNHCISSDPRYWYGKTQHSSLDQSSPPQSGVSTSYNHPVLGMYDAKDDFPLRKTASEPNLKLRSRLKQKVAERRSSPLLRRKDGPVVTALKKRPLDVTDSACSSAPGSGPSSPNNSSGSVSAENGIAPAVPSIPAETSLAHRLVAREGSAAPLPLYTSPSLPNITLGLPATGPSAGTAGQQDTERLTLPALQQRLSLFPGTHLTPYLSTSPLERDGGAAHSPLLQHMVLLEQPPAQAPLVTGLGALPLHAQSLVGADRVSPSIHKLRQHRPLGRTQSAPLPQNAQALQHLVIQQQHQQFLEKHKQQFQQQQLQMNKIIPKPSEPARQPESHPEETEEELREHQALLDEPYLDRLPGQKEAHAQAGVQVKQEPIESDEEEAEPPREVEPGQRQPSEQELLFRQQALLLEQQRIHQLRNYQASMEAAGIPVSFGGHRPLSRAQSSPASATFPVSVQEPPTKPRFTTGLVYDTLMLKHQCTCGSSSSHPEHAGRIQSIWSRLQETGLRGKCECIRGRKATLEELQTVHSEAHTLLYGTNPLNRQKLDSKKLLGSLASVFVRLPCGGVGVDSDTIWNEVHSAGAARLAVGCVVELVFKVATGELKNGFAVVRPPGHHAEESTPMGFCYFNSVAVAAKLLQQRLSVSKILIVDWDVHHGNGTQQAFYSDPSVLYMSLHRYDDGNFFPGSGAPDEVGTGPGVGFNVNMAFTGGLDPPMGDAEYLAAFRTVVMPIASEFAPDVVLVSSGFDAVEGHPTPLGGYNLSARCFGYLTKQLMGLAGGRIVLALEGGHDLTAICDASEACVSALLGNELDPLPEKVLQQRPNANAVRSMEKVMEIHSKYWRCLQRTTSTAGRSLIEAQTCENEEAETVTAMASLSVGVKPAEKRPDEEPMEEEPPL
Description: (§6) The NCBI database was screened with the yeast Hda1p amino acid sequence to identify human homologs. The complete ORFs of HDAC 4 (SEQ ID NO:2), 5 (SEQ ID NO:4), and 6 (SEQ ID NO:6) were constructed as described in Methods. […] The two catalytic regions in HDAC6 (SEQ ID NO:6) are highly homologous to each other (47% identity, 64% similarity) and therefore the protein may have arisen evolutionarily from an in frame gene duplication event. […] C. In Vitro Histone Deacetylase Activity of Class II HDACs.

HDAC5 [4] = molecular target: HDAC5 (Homo sapiens, UniProt Q9UQL6); conditions: 300 nM TSA, 10 minutes prior to addition of labeled histones
Sequence of HDAC5 (Homo sapiens, UniProt Q9UQL6) (Q9UQL6 whole entry D593E): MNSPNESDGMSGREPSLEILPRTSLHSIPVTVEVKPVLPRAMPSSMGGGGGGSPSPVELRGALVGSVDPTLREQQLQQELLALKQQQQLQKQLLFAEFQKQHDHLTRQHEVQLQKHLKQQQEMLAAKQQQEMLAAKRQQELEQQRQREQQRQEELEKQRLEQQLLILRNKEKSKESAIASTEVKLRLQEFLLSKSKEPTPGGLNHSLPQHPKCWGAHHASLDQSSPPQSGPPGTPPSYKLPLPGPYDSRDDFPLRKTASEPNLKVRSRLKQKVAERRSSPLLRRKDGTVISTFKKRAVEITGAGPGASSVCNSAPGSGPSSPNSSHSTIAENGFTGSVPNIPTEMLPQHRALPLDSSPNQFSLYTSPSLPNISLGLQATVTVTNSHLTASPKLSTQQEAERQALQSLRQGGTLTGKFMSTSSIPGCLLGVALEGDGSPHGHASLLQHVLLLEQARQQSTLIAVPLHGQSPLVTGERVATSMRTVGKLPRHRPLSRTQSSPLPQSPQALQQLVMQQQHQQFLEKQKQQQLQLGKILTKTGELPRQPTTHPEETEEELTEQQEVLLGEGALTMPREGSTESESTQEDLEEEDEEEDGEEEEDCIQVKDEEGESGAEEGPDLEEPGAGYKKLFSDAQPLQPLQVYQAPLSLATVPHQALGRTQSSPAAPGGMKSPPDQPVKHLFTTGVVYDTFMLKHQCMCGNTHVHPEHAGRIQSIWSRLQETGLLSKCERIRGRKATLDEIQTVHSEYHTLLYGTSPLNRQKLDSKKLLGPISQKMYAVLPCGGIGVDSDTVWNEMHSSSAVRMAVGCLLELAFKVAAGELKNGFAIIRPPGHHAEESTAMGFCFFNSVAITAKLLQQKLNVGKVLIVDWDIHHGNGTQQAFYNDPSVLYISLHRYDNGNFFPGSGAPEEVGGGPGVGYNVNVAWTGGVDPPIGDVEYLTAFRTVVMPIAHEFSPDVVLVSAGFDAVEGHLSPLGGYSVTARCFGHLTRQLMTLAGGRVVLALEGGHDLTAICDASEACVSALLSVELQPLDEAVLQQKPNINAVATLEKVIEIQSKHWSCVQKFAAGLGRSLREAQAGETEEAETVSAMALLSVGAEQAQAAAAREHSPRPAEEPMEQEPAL
Description: as §6

HDAC1 = molecular target: T2, HDAC1 (Homo sapiens, UniProt Q13547); test: in vitro HDAC assay, release of 3H-acetate from labeled histones by immunoprecipitated FLAG-tagged HDAC1; type: biochemical; conditions: 300 nM TSA, 10 minutes prior to addition of labeled histones
T2 construct: made in house; host or cells: Sf9 insect cells (baculovirus, pVL1392)
T2 sequence (Q13547 whole entry): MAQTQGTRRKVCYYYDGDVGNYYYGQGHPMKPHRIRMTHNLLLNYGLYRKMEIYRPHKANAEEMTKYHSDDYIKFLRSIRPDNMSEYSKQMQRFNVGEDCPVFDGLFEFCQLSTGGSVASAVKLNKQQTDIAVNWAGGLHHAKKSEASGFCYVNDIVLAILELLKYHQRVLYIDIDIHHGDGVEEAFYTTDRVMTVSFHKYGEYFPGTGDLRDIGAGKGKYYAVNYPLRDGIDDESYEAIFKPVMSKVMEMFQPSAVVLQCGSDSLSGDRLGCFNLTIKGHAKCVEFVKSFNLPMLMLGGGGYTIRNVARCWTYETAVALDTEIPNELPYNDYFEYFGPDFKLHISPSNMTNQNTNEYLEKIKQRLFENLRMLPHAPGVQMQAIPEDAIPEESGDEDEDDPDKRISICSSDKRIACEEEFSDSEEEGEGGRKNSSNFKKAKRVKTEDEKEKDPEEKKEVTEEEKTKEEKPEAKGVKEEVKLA
Description: as §3, §4, §5

| HDAC6 deacetylation activity in the presence of TSA (HDAC6) | HDAC4 deacetylation activity in the presence of TSA (HDAC4 [3]) | HDAC5 deacetylation activity in the presence of TSA (HDAC5 [4]) | HDAC1 deacetylation activity in the presence of TSA (HDAC1) | Structure (SMILES) | HDAC5 association with HDAC3 (HDAC5 [1]) | binding of HDAC5 to either 14-3-3 isoform (HDAC5 [1]) | HDAC activity of the purified HDAC5 complex (HDAC5 [1]) | HDAC4 association with HDAC3 (HDAC4 [2]; Western blot) | binding of HDAC4 to either 14-3-3 isoform (HDAC4 [2]; Western blot) | HDAC activity of the purified HDAC4 complex (HDAC4 [2]) | HDAC4 association with importin α (HDAC4 [2]; Western blot) |
| --- | --- | --- | --- | --- | --- | --- | --- | --- | --- | --- | --- |
|  |  |  |  | CN[C@@H]1C[C@H]2O[C@@](C)([C@@H]1OC)n1c3ccccc3c3c4c(c5c6ccccc6n2c5c31)C(=O)NC4 [staurosporine] | increase | decrease | increase | increase | decrease | increase |  |
| greatly reduced | greatly reduced | greatly reduced | greatly reduced | CC(/C=C/C(=O)NO)=C\[C@@H](C)C(=O)c1ccc(N(C)C)cc1 [TSA, trichostatin A] |  |  |  |  |  |  |  |
|  |  |  |  | COC[C@@H]([C@H](O)[C@H](O)C(=O)NCC[C@H](C)c1nc(/C=C/C[C@@H]2O[C@]3(C[C@@H](O)[C@@H]2C)O[C@H]([C@H](C[C@H](O)[C@H](C)[C@H](O)[C@H](C)/C=C(C)/C(C)=C/C=C/C(C)=C\C#N)OC)[C@H](OP(=O)(O)O)C3(C)C)co1)N(C)C [calyculin A] | loss of interaction | increase | dramatic reduction | loss of interaction | increase | dramatic reduction | fails to associate |
